Experimental data: paper PMC10590756, “Glutarate regulates T cell metabolism and anti-tumour immunity” (Nature Metabolism, 2023)

Tests used:
[1] = tested on: 5hmC (the reaction product of TET2) in human CD8^+ T cells; experiment: 5hmC staining by flow cytometry; format: cell-based; settings: DEG 7 days, dose-dependent
Procedure: For 5-hydroxymethylcytosine (5hmC) staining, cells were stained for surface antigens as above and then fixed and permeabilized with the Transcription Factor Buffer Set. Next cells were incubated with 4 M HCl for 10 min at room temperature. Cells were then thoroughly washed and incubated in blocking buffer (0.1% PBS-Triton X-100, 5% FCS) for 30 min at 4 °C. Cells were then incubated with primary anti-5hmC (catalogue no. 10013602, Active Motif) overnight at 4 °C and the day after with secondary antibody for 1 h at room temperature. Flow cytometry was then performed as explained above. Cells were sorted on an FACSAria III (BD Biosciences) after surface antigen staining as described above. Data were analysed using FlowJo v.10.7.2.

[2] = tested on: human CD8^+ T cells; experiment: qPCR gene expression in CD8^+ T cells; format: cell-based; settings: 500 µM DEG, 7 days
Procedure: Total RNA was extracted from isolated CD8^+ T cells (RNeasy Kit, QIAGEN); 300 ng of RNA were used for complementary DNA synthesis (First-Strand cDNA Synthesis Kit, Invitrogen). Quantitative PCR with reverse transcription (RT–qPCR) was performed with SYBR green (Roche) in a StepOnePlus system (Applied Biosystems). All kits were used according to the manufacturer’s instructions. Samples were run in technical duplicates. Primers were designed with NCBI primer blast and are listed in Supplementary Table 5.

[3] = tested on: H3 lysine methylation in human CD8^+ T cells; experiment: Histone 3 methylation western blot; format: cell-based; settings: DEG 500 µM, 7 days
Procedure: Histones were extracted with the Histone Extraction Kit (catalogue no. ab113476, Abcam). Proteins were separated by SDS–PAGE and transferred to polyvinylidene fluoride (PVDF) membranes. Total protein stain was obtained using non-stain protein labelling reagent (catalogue no. A44448, Thermo Fisher Scientific). Membranes were then blocked in 5% milk prepared in PBS plus 0.05% Tween-20, incubated with primary antibodies overnight at 4 °C and horseradish peroxidase (HRP)-conjugated secondary antibodies (catalogue nos. HAF008 and HAF007, R&D Systems) for 1 h the next day. After enhanced chemiluminescence (ECL) exposure (catalogue no. GERPN2106, Sigma-Aldrich), membranes were imaged using an iBrightCL1000 (Thermo Fisher Scientific). […] 13998); and anti-H3k27ac (catalogue no.

[4] = tested on: human CD8^+ T cells; experiment: Glucose uptake assay; format: cell-based; settings: 500 µM DEG, acute and chronic
Procedure: Glucose uptake was determined using a Glucose Uptake Assay Kit (catalogue no. J1341, Promega Corporation). The assay was performed according to the manufacturer’s instructions. Data were acquired on the FLUOstar Omega.

[5] = tested on: human CD19^+ CAR T cells; experiment: Growth of human CD19 CAR T cells; format: cell-based; settings: 500 µM, 7 days
[6] = tested on: murine OT1 T cells; experiment: Growth of murine OT1 T cells; format: cell-based, mouse; settings: 500 µM, 7 days
Procedure: B16F10 cells were originally purchased from ATCC (catalogue no. CRL-6475) and genetically modified to express OVA, enhanced green fluorescent protein (GFP) and neomycin phosphotransferase. The resulting OVA expression B16F10-OVA cells were cultured in DMEM (catalogue no. 11995065, Thermo Fisher Scientific) containing 0.75 mg ml^−1 G418 sulphate (catalogue no. 10131027, Thermo Fisher Scientific). HEK 293T cells were purchased from Takara Bio (catalogue no. 632180) and cultured in DMEM. SKOV3 was purchased from ATCC (catalogue no. HTB-77) and cultured in McCoy’s 5A (Modified) Medium (catalogue no. 16600082, Thermo Fisher Scientific). Raji-GFP-Luc cells were purchased from Biocytogen (catalogue no. B-HCL-010) and cultured in Roswell Park Memorial Institute (RPMI) 1640 (catalogue no. 21875, Thermo Fisher Scientific). Jurkat cells were purchased from ATCC (catalogue no. TIB-152) and cultured in RPMI 1640. RAW 264.7 cells were purchased from ATCC (catalogue no. TIB-71) and cultured in RPMI 1640. HeLa cells were a gift from P. Lehner (University of Cambridge) and were authenticated using short tandem repeat profiling (Eurofins Genomics). HeLa cells were cultured in DMEM. […] Cell number and viability was determined using the ADAM-MC Automated Cell Counter (NanoEntek), CellDrop Automated Cell Counter (DeNovix) or TC20 Automated Cell Counter (Bio-Rad Laboratories).

[7] = tested on: B16F10-OVA melanoma tumours; experiment: B16F10-OVA tumour growth and infiltration model; format: in vivo, C57BL/6J mice
Procedure: Seven to 10-week-old male C57BL/6J mice were inoculated subcutaneously with 1.0 × 10^6 B16F10-OVA. Animals were assigned randomly to each experimental group. Four days after inoculation, mice were treated with a peritoneal injection of 0.2 mg DEG (approximately 10 mg kg^−1). Treatment was repeated every 2–3 days until day 28. Tumour volume was measured every 2–3 days with electronic callipers until day 30. Peripheral blood was collected from the tail vein at day 7 and 14 days after tumour inoculation and analysed using flow cytometry. On day 14, tumours were dissected and dissociated using the Tumor Dissociation Kit (catalogue no. 130-095-929, Miltenyi Biotec), according to the manufacturer’s instructions. Spleen and the tumour-draining lymph node were mashed in cell strainers. The tumour, spleen and draining lymph node single-cell suspensions were stained with fluorochrome-labelled antibodies and analysed using flow cytometry. The tumour experiments using C57BL/6J mice were carried out in accordance with the ethical regulations of the UK Home Office and the maximal tumour burden of […] was not exceeded (mice were euthanized when tumour volume exceeded […]).

[8] = 14 days after tumour inoculation, relative to controls

In the case of `CCOC(=O)CCCC(=O)OCC` [DEG, Diethyl glutarate], the 5hmC levels [1] is reported as “decrease”, the “carnitine palmitoyltransferase 1A (CPT1A) gene expression” value [2] is reported as “increased levels” and the “expression of HIF target genes” value [2] is reported as “increased expression”. The “fatty acid binding protein (FABP) gene expression” value [2] was “increased levels”, the “fatty acid synthase (FASN) gene expression” value [2] was “increased levels” and the “mRNA levels of PDHK1” value [2] was “increased”. For the same compound, the “dimethylation of H3K9” value [3] was “increased”, the “trimethylation of H3K9” value [3] was “increased” and the “trimethylation of H3K27” value [3] was “increased”. The “rate of glucose uptake” value [4] was “no changes”, the “growth of human CD19^+ CAR T cells” value [5] was “did not affect the growth” and the “growth of murine OT1 T cells” value [6] was “did not affect the growth”. The survival ([7]; 10 mg kg^−1 DEG intraperitoneally every 48–72 h, 1,000 mm^3 tumour volume as threshold) was “significantly increased survival”, the tumour growth ([7]; 10 mg kg^−1 DEG intraperitoneally every 48–72 h from day 4) was “significantly slowed tumour growth” and the “peripheral blood CD8^+ T cells” value [7, 8] was “significant increase”. For the same compound, the “tumour-infiltrating CD8^+ T cells” value [7, 8] was “significant increase”, the other immune populations ([7]; blood, tumour, spleen, tumour-draining lymph node, day 14) was “No changes” and the “circulating B cells” value ([7]; day 14) was “slight decrease”. For the same compound, the “exhaustion-associated markers (TIM3, PD1, LAG3, TOX) in tumour-infiltrating CD4^+ or CD8^+ cells” value ([7]; day 14) was “no changes” and the “memory-associated markers (CD62L and CD44) in tumour-infiltrating CD4^+ or CD8^+ cells” value ([7]; day 14) was “no changes”.
